Experimental data taken from ChEMBL document CHEMBL5465560, “Selectivity Literature for EUbOPEN Chemogenomic Library” (2024).
Each block holds one compound with its values, some of them ahead of it.

Experiments:
[1] = molecular target: MAP kinase-interacting serine/threonine-protein kinase 1 (Homo sapiens) (UniProt Q9BUB5); conditions: at 10 µM
[2] = molecular target: Tyrosine-protein kinase Fyn (Homo sapiens) (UniProt P06241); assay: Selectivity interaction (ActivX KiNativ screen (kinase selectivity in THP-1 cell lysates)) EUB0000639a FYN; type: subcellular; conditions: lysate, at 0.04 µM
Chain of Tyrosine-protein kinase Fyn (Homo sapiens) (P06241 2-537 limits assumed): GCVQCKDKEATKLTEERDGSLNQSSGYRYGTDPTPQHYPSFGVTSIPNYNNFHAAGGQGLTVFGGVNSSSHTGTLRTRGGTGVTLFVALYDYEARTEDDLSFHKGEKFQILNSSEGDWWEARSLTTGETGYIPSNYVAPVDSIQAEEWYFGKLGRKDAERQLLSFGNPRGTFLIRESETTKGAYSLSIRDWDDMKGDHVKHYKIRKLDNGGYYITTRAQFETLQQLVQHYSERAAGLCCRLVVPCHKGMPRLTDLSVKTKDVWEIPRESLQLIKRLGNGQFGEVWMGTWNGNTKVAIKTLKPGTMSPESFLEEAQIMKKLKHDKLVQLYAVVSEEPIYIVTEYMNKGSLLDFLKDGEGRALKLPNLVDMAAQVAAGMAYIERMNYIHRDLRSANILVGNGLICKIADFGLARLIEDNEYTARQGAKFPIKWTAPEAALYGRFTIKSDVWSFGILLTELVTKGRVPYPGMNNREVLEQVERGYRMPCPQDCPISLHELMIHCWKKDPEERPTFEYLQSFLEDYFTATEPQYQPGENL

[3] = molecular target: Tyrosine-protein kinase Lyn (Homo sapiens, UniProt P07948); assay: Selectivity interaction (ActivX KiNativ screen (kinase selectivity in THP-1 cell lysates)) EUB0000639a LYN; type: subcellular; conditions: lysate, at 0.01 µM
Chain of Tyrosine-protein kinase Lyn (P07948 2-512 limits assumed): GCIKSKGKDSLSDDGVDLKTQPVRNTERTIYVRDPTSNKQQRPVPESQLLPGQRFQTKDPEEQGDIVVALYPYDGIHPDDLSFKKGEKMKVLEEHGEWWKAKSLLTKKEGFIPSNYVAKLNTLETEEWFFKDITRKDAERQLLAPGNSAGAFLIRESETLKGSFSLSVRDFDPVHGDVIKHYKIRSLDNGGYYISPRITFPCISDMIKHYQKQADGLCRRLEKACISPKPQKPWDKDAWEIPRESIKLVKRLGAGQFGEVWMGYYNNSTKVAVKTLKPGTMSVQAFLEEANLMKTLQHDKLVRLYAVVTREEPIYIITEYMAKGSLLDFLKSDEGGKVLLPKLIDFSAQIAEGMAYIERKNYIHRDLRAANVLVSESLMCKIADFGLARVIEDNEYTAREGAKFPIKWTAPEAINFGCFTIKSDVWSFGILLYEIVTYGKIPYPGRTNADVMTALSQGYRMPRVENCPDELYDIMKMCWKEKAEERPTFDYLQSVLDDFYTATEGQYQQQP

[4] = molecular target: T1, Mitogen-activated protein kinase kinase kinase kinase 2 (Homo sapiens) (UniProt Q12851); assay: Selectivity interaction (KinomeScan (DiscoverX)) EUB0000595a MAP4K2; conditions: at 10 µM
T1 sequence (whole entry): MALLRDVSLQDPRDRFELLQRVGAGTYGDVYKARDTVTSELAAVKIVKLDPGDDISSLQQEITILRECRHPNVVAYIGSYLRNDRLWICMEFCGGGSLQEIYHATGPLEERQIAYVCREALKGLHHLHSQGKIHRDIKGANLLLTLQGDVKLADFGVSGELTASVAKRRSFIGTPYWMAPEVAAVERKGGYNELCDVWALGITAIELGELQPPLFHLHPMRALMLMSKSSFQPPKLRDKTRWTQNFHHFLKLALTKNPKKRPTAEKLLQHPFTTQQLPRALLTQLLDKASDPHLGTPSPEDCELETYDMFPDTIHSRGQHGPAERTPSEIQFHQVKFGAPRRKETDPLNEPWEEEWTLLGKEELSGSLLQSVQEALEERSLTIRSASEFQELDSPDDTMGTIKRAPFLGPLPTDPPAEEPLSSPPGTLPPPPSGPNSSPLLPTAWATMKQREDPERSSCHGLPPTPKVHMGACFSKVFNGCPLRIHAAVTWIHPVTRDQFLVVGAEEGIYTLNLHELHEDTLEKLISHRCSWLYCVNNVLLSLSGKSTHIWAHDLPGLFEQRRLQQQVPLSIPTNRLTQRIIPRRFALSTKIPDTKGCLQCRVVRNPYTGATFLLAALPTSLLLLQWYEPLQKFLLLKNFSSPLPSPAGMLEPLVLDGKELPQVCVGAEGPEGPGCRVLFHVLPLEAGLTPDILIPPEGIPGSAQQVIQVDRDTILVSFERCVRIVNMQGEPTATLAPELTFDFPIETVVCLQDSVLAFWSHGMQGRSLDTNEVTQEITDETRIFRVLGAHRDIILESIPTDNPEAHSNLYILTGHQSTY

[5] = molecular target: T2, Atypical kinase COQ8B, mitochondrial (Homo sapiens) (UniProt Q96D53); assay: Selectivity interaction (KinomeScan (DiscoverX)) EUB0000595a ADCK4; conditions: at 10 µM
T2 sequence (whole entry): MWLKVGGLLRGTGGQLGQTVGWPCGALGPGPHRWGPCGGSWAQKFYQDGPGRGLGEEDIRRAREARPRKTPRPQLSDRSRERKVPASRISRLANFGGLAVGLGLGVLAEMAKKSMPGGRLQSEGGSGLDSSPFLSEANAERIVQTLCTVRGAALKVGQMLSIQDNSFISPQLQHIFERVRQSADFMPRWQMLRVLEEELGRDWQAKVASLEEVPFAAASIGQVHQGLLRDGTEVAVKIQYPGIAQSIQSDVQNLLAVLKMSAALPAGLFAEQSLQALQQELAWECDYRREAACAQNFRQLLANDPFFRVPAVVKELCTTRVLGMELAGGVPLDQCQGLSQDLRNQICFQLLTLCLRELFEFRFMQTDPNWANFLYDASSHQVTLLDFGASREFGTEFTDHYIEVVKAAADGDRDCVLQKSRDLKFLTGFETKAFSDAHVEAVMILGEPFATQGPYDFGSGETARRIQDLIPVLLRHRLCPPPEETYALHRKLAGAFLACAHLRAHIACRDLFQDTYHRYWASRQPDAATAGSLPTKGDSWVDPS

[6] = molecular target: Hepatocyte growth factor receptor (Homo sapiens, UniProt P08581); assay: Selectivity interaction (Millipore kinase profiler) EUB0000124b MET; conditions: at 10 µM
Chain of Hepatocyte growth factor receptor (P08581 whole entry): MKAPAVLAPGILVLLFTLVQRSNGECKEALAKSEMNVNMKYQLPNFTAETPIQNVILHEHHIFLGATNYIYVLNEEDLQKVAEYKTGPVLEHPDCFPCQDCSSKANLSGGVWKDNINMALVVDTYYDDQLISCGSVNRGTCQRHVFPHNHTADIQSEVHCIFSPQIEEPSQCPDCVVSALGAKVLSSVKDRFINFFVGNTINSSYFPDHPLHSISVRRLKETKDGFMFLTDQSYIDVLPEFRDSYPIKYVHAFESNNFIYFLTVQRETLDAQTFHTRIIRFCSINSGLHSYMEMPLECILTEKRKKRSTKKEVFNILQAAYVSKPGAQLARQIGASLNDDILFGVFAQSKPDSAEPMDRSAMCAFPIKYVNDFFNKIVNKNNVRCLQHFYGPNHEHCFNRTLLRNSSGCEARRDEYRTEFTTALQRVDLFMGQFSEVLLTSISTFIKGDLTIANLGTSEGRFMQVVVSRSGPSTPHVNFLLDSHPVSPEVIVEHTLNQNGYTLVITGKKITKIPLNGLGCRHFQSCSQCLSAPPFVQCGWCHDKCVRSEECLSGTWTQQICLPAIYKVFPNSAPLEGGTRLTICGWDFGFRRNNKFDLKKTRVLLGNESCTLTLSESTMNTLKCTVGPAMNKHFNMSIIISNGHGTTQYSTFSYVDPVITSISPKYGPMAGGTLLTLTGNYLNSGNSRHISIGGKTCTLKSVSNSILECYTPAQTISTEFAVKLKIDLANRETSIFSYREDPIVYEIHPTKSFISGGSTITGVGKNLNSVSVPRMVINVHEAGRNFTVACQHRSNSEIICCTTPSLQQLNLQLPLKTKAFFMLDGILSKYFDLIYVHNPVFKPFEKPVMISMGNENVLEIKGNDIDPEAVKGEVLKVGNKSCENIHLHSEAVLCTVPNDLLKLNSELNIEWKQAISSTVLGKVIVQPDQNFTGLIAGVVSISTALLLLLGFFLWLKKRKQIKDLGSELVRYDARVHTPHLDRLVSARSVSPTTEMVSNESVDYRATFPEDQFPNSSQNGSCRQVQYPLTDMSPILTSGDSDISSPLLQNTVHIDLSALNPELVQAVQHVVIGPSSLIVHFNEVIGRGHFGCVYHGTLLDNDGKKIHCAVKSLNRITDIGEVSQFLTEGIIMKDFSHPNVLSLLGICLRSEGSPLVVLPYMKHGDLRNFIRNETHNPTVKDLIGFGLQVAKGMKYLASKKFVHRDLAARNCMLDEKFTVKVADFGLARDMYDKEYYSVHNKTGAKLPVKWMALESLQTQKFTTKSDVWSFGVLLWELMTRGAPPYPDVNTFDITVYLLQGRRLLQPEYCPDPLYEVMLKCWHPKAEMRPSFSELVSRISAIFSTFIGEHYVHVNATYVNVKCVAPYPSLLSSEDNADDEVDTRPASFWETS

[7] = molecular target: Protein arginine N-methyltransferase 8 (Homo sapiens, UniProt Q9NR22); conditions: at 10 µM
Chain of Protein arginine N-methyltransferase 8 (Q9NR22 2-394 limits assumed): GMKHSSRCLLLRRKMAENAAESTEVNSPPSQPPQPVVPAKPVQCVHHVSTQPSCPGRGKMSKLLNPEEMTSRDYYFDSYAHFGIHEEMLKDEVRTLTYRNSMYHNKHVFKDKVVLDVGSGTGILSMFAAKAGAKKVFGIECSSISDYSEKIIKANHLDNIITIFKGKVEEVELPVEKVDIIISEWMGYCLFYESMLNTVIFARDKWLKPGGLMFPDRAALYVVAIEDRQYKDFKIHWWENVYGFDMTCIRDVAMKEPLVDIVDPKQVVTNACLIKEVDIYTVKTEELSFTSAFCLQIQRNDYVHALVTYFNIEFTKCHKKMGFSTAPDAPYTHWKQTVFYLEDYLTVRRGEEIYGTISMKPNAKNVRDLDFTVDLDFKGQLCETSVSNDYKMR

[8] = molecular target: T3, Mitogen-activated protein kinase kinase kinase kinase 3 (Homo sapiens) (UniProt Q8IVH8); assay: Selectivity interaction (KinomeScan (DiscoverX)) EUB0000092b MAP4K3; conditions: at 10 µM
T3 sequence (whole entry): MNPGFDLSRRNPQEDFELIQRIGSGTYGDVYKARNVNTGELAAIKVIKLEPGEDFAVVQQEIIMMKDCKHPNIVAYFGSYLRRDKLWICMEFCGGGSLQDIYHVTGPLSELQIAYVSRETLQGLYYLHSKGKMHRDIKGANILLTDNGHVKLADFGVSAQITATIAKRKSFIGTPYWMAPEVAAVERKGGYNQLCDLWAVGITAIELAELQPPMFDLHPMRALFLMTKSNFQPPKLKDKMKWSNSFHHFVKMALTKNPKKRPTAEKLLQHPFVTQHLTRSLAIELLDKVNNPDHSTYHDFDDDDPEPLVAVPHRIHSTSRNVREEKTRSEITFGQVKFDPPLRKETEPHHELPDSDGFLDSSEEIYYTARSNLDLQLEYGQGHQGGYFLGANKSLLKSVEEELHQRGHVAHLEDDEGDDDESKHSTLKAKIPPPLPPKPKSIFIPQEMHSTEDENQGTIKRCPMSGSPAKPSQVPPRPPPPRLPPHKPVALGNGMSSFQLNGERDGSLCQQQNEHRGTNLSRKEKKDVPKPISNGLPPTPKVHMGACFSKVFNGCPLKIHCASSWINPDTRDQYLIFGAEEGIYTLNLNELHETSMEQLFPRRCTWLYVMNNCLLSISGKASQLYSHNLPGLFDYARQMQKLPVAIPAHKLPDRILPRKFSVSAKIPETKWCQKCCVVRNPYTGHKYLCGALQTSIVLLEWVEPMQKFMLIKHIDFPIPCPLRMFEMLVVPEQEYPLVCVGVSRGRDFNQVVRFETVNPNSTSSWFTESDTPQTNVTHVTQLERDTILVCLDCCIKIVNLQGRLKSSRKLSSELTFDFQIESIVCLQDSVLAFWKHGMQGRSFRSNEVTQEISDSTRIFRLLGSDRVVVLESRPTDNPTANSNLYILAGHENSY

[9] = molecular target: RAF proto-oncogene serine/threonine-protein kinase (Homo sapiens) (UniProt P04049); conditions: at 10 µM
Chain of RAF proto-oncogene serine/threonine-protein kinase (Homo sapiens) (P04049 whole entry): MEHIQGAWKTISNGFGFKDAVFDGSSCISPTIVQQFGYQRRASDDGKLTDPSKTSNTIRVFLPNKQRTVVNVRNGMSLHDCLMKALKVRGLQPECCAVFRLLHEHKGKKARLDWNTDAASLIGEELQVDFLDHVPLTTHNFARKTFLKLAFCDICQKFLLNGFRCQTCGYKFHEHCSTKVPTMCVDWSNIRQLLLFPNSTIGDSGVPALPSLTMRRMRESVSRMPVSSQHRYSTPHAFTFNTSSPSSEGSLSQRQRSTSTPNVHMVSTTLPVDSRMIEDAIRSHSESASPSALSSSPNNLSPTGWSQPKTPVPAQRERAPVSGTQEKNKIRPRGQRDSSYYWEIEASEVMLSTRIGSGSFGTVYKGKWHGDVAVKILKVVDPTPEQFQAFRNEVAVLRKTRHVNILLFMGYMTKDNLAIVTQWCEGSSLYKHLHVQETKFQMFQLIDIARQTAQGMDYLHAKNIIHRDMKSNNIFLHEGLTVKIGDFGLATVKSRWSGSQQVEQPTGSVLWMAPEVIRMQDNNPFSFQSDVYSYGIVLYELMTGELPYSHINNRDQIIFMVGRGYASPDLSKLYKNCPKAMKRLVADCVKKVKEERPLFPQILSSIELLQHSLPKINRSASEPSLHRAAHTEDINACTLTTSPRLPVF

[10] = molecular target: Serine/threonine-protein kinase pim-3 (Homo sapiens) (UniProt Q86V86); assay: Selectivity interaction (KinomeScan (DiscoverX)) EUB0001619a PIM3; conditions: at 1 µM

Chain of MAP kinase-interacting serine/threonine-protein kinase 1 (Homo sapiens) (Q9BUB5 whole entry, looked up): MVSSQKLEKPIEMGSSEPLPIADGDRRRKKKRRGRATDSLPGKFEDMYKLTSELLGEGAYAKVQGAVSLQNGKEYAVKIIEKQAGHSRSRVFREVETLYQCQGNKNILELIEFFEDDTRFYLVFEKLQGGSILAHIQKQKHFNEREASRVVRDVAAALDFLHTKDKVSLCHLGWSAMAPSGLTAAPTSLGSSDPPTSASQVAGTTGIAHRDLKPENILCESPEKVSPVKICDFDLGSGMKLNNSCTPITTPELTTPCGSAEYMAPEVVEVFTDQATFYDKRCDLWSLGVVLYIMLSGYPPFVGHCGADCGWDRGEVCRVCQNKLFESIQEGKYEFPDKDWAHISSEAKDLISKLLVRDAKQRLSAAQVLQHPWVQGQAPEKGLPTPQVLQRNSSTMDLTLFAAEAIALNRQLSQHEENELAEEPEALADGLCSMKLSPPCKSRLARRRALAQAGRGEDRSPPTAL

- % of control [1]: 100%
Compound: CCN(CC)CCCCNc1ncc2cc(-c3cc(OC)cc(OC)c3)c(NC(=O)NC(C)(C)C)nc2n1

- % of inhibition [2]: -0.2%
- % of inhibition [3]: 5.3%
Compound: CC[C@@H]1[C@H](F)C(=O)N[C@@H]1COc1nccc2cc(C(N)=O)c(OC)cc12 [ZIMLOVISERTIB]

Compound: COCC(=O)NC/C=C/c1ccc2ncnc(Nc3ccc(Oc4ccc(C)nc4)c(C)c3)c2c1 [CP-724714]
- % of control [4]: 100%
- % of control [5]: 98%

- % of control [6]: 150%
Compound: CC(=O)Nc1cccc(-n2c(=O)n(C3CC3)c(=O)c3c(Nc4ccc(I)cc4F)n(C)c(=O)c(C)c32)c1

- % activity [7]: 82%
Compound: CNCCN1CCC(c2cc(CN(C)C(=O)c3cccc(Oc4ccccc4)c3)ccn2)CC1

Compound: CCC(=O)N1CCN(c2ccc(-n3c(=O)ccc4cnc5ccc(-c6cnc7ccccc7c6)cc5c43)cc2C(F)(F)F)CC1
- % of control [8]: 1.9%

Compound: Cc1cc([C@@H](C)Nc2ccccc2C(=O)O)c2nc(N3CCOCC3)cc(=O)n2c1 [AZD-6482]
- % of control [9]: 100%

Compound: N#Cc1cccc(-c2c[nH]c3ncnc(N4CCOCC4)c23)c1
- % of control [10]: 100%
